Counter-ions that a name gives are not always drawn. Marks after values point to notes of the source that are not given here.
How the values were obtained:
[1] = system: Kunming mice; assay: Acetic acid-induced abdominal writhing test in mice; assay type: in vivo; conditions: 1 h before 0.7% acetic acid i.p.
Method: Acetic Acid-Induced Abdominal Writhing Test in Mice
Kunming mice, SPF KM mice purchased from […] SLAC LABORATORY ANIMAL CO. LTD and kept in normal environment.
(§1) 2. Modes of Administration
The compounds were dissolved in water for injection at a concentration of 4 mg/ml, 2 mg/ml and 1 mg/ml and were given intragastrically to animals.
(§2) Three different doses (10, 20, and 40 mg/kg) were administered to the test groups.
Aspirin was used as a positive control and acetic acid writhing test was used.
30 mice (half male and half female) weighing 18-23 g were divided into five groups, including negative control group, positive control group, low dose group, medium dose group and high dose group:
Mice in test group received test drug (10 mg/kg, 20 mg/kg, 40 mg/kg) via intragastric administration. Negative control group received physiological saline (20 ml/kg) via oral administration. Positive control group received aspirin (200 mg/kg) via oral administration. One hour later, each group received 0.7% acetic acid 10 ml/kg intraperitoneally. Five minutes later, the number of writhes was counted within the subsequent 15 min period; inhibition percentage of writhing response in each test group was calculated by the following equation: […]

[2] = in vivo; conditions: mouse, po, mice
Source text: Studies of Acute Toxicity of the Compound I-1 and I-20
For statistics of 1-20, Bliss method was used (“Experimental Design and Statistical Basis for Drug Evaluation”, Changxiao Liu, Ruiyuan Su, first edition, Military Medical Science Press, 1993, 80-90).

[3] = target: opioid receptor subtype μ (Homo sapiens, UniProt P35372); assay: biochemical; assay type: binding; conditions: test concentration 10^−5 mol/L; [3H]Diprenorphine 0.4 nM; mean±SE; read-out: Inhibition percentage of competitive binding, μ
opioid receptor subtype μ, sequence (P35372 whole entry): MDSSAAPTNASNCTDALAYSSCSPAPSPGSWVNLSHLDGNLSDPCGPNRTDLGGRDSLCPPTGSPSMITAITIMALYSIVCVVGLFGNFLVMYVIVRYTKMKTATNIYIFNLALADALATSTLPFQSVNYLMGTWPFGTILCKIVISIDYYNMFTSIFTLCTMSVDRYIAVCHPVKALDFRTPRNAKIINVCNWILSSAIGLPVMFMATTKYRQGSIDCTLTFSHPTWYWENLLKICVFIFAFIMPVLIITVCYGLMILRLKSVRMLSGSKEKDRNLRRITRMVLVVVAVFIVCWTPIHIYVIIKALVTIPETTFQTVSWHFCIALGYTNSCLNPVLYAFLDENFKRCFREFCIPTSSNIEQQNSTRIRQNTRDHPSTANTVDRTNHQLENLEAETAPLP
Method: (§3) Competitive Binding Between the Compounds and Opioid Receptor Subtypes μ, δ, κ
(§4) The respective test compounds were added to the sample tube (final concentration of 10^−5M), incubated at 37° C. for 30 min and placed in ice bath to terminate the reaction. The reaction mixture was filtered through GF/C(Whatman) glass fiber filter by vacuum filtration on a Millipore sample collector. The filter was washed three times with 50 mM Tris-HCl (pH7.4), each with 4 ml; dried and transferred into a 0.5 ml Eppendorf tube, in which 0.5 ml lipophilic scintillation fluid was added. Radioactivity was detected by a LS6500 scintillation counter. Each concentration had three duplicate test tubes and each separate test was repeated 3 to 4 times.
(§5) Specific binding CMP value for each sample tube=overall binding CPM value for each sample tube-CPM value of non-specific binding tube. [Inhibition percentage of competitive binding between the test compound and different opioid receptor subtypes (%)=(100%−specific binding (CPM value) of sample tube/specific binding (CPM value) of solvent group×100%)]
(§6) Average was taken for each test drug from three duplicate tubes; each test was repeated two or more times.

[4] = target: opioid receptor subtype κ (Homo sapiens, UniProt P41145); assay: biochemical; assay type: binding; conditions: test concentration 10^−5 mol/L; [3H]Diprenorphine 0.4 nM; mean±SE; read-out: Inhibition percentage of competitive binding, κ
opioid receptor subtype κ, sequence (P41145 whole entry): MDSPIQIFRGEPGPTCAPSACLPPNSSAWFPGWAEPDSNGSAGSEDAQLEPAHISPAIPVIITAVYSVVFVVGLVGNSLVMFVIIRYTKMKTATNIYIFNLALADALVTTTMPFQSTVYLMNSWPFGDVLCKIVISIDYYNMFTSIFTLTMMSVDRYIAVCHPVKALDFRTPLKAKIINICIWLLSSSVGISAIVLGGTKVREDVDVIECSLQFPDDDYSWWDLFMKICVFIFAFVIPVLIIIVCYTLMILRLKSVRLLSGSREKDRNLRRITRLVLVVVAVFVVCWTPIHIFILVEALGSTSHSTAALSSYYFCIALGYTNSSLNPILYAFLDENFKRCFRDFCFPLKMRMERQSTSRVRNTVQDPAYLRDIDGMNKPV
Method: as §3, §4, §5, §6

[5] = target: opioid receptor subtype δ (Homo sapiens, UniProt P41143); assay: Competitive radioligand binding ([3H]Diprenorphine), opioid receptor subtype δ; conditions: read-out: Inhibition percentage of competitive binding, δ
opioid receptor subtype δ, sequence (P41143 whole entry): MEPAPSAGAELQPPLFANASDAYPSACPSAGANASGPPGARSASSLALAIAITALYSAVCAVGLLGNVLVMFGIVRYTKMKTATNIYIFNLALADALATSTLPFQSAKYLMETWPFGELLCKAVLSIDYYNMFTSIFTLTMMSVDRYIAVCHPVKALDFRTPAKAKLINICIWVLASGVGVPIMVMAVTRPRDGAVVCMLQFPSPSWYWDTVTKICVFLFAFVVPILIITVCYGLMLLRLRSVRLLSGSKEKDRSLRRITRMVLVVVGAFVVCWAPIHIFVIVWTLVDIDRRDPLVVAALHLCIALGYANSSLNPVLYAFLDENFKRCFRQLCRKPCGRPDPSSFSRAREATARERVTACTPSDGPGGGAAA
Method: as §3, §4, §5
Average was taken for each test drug from three duplicate tubes; each test was repeated two or more times. Data were presented as mean±SE and statistical comparison was made by ANOVA.

[6] = system: Kunming mice; assay: Hot-plate test in mice; assay type: in vivo; conditions: 1 h post dose, hot plate 55° C.
Method: Kunming mice, SPF KM mice were purchased from […] SLAC LABORATORY ANIMAL CO. LTD and kept in normal environment.
as §1
The compounds were dissolved in water for injection at a concentration of 4 mg/ml, 2 mg/ml and 1 mg/ml and were given subcutaneously to animals.
as §2
Morphine was used as a positive control and hot plate test was used.
30-40 mice (half male and half female) weighing 18-23 g were used. First, each mouse was placed on a hot plat at 55° C. to determine basic pain threshold for 2-3 times. Those animals with basic pain threshold of 5-30 s were qualified, unqualified mice were not used. 30 qualified mice were divided into five groups, including negative control group, positive control group, low-dose group, medium-dose group and high-dose group:
Mice in test groups received test sample solution (10 mg/kg, 20 mg/kg, 40 mg/kg) via subcutaneous injection in the neck. Positive control group received subcutaneous injection of morphine (2 mg/kg). One hour later, pain threshold values were determined for mice in each group as post-drug pain threshold. Percentage increase in pain threshold was calculated according to the following equation: […]

Row | SMILES | Inhibition percentage of writhing response ([1]; 10 mg/kg Ig) | Inhibition percentage of writhing response ([1]; 20 mg/kg Ig) | Inhibition percentage of writhing response ([1]; 40 mg/kg Ig) | other results
1 | COc1ccccc1N1CCN(C(C)C(O)c2ccc3[nH]c(=O)[nH]c3c2)CC1 (racemic) (as salt: hydrochloride) |  |  |  | melting point: 221 to 223 °C
2 | CC(C(O)c1ccc2[nH]c(=O)sc2c1)N1CCN(c2cccc(C(F)(F)F)c2)CC1 (racemic) (as salt: hydrochloride) |  |  |  | melting point: 217 to 219 °C
3 | COc1ccccc1N1CCN([C@@H](C)[C@H](O)c2ccc3c(c2)CC(=O)N3)CC1 (racemic) (as salt: hydrochloride) [IV-1, (1RS,2SR)-5-(1-hydroxy-2-(4-(2-methoxyphenyl)piperazin-1-yl)propyl)indolin-2-one] |  |  |  | melting point: 213 to 215 °C
4 | C[C@@H]([C@H](O)c1ccccc1)N1CCN(c2cccc(C(F)(F)F)c2)CC1 (racemic) [Compound I-1, (1RS,2SR)-1-phenyl-2-(4-(3-trifluoromethylphenyl)piperazinyl)-propan-1-ol] | 64.38 * % | 68.13 * % | 83.13 ** % | LD50 [2]: > 2000 mg/kg; inhibition at 10 µM [3]: 22.7 ± 2.2%; inhibition at 10 µM [4]: 2.7 ± 0.9%; inhibition at 10 µM [5]: 0%; Percentage increase in pain threshold ([6]; 10 mg/kg S.c.): 4.53%; Percentage increase in pain threshold ([6]; 20 mg/kg S.c.): 11.7%; Percentage increase in pain threshold ([6]; 40 mg/kg S.c.): 89.62 ** %
5 | C[C@H]([C@H](O)c1ccccc1)N1CCN(c2cccc(C(F)(F)F)c2)CC1 (racemic) [Compound I-2, (1RS,2RS)-1-phenyl-2-(4-(3-trifluoromethylphenyl)piperazinyl)-propan-1-ol] | 40.53% | 63.16 * % | 68.95 * % | 
6 | C[C@@H]([C@H](O)c1ccccc1)N1CCN(c2cccc(Cl)c2)CC1 (racemic) [Compound I-3, (1RS,2SR)-1-phenyl-2-(4-(3-chlorophenyl)piperazinyl)-propan-1-ol] | 49.61% | 76.38 * % | 83.46 ** % | 
7 | C[C@H]([C@H](O)c1ccccc1)N1CCN(c2cccc(Cl)c2)CC1 (racemic) [Compound I-4, (1RS,2RS)-1-phenyl-2-(4-(3-chlorophenyl)piperazinyl)-propan-1-ol] | 35.00% | 49.38 * % | 78.13 ** % | 
8 | COc1ccc(N2CCN([C@@H](C)[C@H](O)c3ccccc3)CC2)cc1 (racemic) [Compound I-7, (1RS,2SR)-1-phenyl-2-(4-(4-methoxyphenyl)piperazinyl)-propan-1-ol] | 61.02% | 75.42 ** % | 70.34 * % | 
9 | COc1ccc([C@@H](O)[C@H](C)N2CCN(c3ccccc3OC)CC2)cc1 (racemic) [Compound I-13, (1RS,2SR)-1-(4-methoxyphenyl)-2-(4-(2-methoxyphenyl)piperazinyl)-propan-1-ol] | 73.33 * % | 84.55 * % | 87.88 ** % | Percentage increase in pain threshold ([6]; 10 mg/kg S.c.): 16.19%; Percentage increase in pain threshold ([6]; 20 mg/kg S.c.): 74.59 * %; Percentage increase in pain threshold ([6]; 40 mg/kg S.c.): 142.41 ** %
10 | COc1ccc([C@@H](O)[C@@H](C)N2CCN(c3ccccc3OC)CC2)cc1 (racemic) [Compound I-14, (1RS,2RS)-1-(4-methoxyphenyl)-2-(4-(2-methoxyphenyl)piperazinyl)-propan-1-ol] | 74.55 * % | 79.39 * % | 76.36% | 
11 | C[C@@H]([C@H](O)c1ccc(NS(C)(=O)=O)cc1)N1CCN(c2cccc(C(F)(F)F)c2)CC1 (racemic) [Compound I-17, (1RS,2SR)-1-(4-methanesulfonamidophenyl)-2-(4-(3-trifluoromethylphenyl)piperazinyl)-propan-1-ol] |  |  |  | Percentage increase in pain threshold ([6]; 10 mg/kg S.c.): 59.02%; Percentage increase in pain threshold ([6]; 20 mg/kg S.c.): 147.36 ** %; Percentage increase in pain threshold ([6]; 40 mg/kg S.c.): 172.27 ** %
12 | COc1ccccc1N1CCN([C@@H](C)[C@H](O)c2ccc3c(c2)CC(=O)N3)CC1 (racemic) [IV-1, (1RS,2SR)-5-(1-hydroxy-2-(4-(2-methoxyphenyl)piperazin-1-yl)propyl)indolin-2-one] | 92.92 ** % | 74.34 * % | 89.38 ** % | inhibition at 10 µM [3]: 7.6 ± 0.8%; inhibition at 10 µM [4]: 5.3 ± 0.1%; inhibition at 10 µM [5]: 0%
13 | COc1ccccc1N1CCN([C@H](C)[C@H](O)c2ccc3c(c2)CC(=O)N3)CC1 (racemic) [IV-2, (1RS,2RS)-5-(1-hydroxy-2-(4-(2-methoxyphenyl)piperazin-1-yl)propyl)indolin-2-one] | 98.23 ** % | 97.35 ** % | 93.81 ** % | 
14 | CC(=O)Oc1ccccc1C(=O)O [Aspirin, reference compound] |  |  |  | Inhibition percentage of writhing response ([1]; positive control aspirin 200 mg/kg oral): 95.05 ** %
15 | COc1ccccc1N1CCN([C@@H](C)[C@H](O)c2ccccc2)CC1 [II-1, (1R,2S)-1-phenyl-2-(4-(2-methoxyphenyl)piperazinyl)-propan-1-ol] | 30.09% | 47.79 * % | 58.41 * % | 
16 | COc1ccccc1N1CCN([C@@H](C)[C@@H](O)c2ccccc2)CC1 [II-2, (1S,2S)-1-phenyl-2-(4-(2-methoxyphenyl)piperazinyl)-propan-1-ol] | 69.91 * % | 71.48 * % | 74.34 ** % | inhibition at 10 µM [3]: 5.3 ± 0.9%; inhibition at 10 µM [4]: 36.5 ± 1.6%; inhibition at 10 µM [5]: 12.8 ± 0.8%
17 | COc1ccccc1N1CCN([C@H](C)[C@@H](O)c2ccccc2)CC1 [III-1, (1S,2R)-1-phenyl-2-(4-(2-methoxyphenyl)piperazinyl)-propan-1-ol] | 69.28 ** % | 55.56 * % | 67.32 ** % | 
18 | COc1ccccc1N1CCN([C@H](C)[C@H](O)c2ccccc2)CC1 [III-2, (1R,2R)-1-phenyl-2-(4-(2-methoxyphenyl)piperazinyl)-propan-1-ol] | 64.05 ** % | 76.47 ** % | 86.27 ** % | inhibition at 10 µM [3]: 25.1 ± 1.3%; inhibition at 10 µM [4]: 40 ± 0.6%; inhibition at 10 µM [5]: 16.8 ± 2.3%; Percentage increase in pain threshold ([6]; 10 mg/kg S.c.): 72.91%; Percentage increase in pain threshold ([6]; 20 mg/kg S.c.): 133.48 * %; Percentage increase in pain threshold ([6]; 40 mg/kg S.c.): 151.86 * %
19 | CN1CC[C@]23c4c5ccc(O)c4O[C@H]2[C@@H](O)C=C[C@H]3[C@H]1C5 [morphine, reference compound] |  |  |  | Percentage increase in pain threshold ([6]; positive control morphine 2 mg/kg S.c.): 202.5 ** %

From patent US8778948B2, “Substituted phenylpiperazinyl aralkylalcohol derivatives, pharmaceutical compositions containing such derivatives and uses thereof” (priority 2008, dated 2014)
